# What was measured:
# [1] = system: female NZB/WF1 SLE mice; assay: Changes of proteinuria in SLE mouse model (Bio-Rad protein assay of urine); type: in vivo; conditions: for proteinuria level: after 6 weeks of experiment, oral once per day (cyclohexenone compounds 50 mg/kg; prednisolone 1.25 mg/kg), negative control 89.16 vs. 246 mg/dl
# Method: (§1) Female NZB/WF1 mice spontaneously develop human SLE-like syndromes, such as generation of antinuclear autoantibodies, proteinuria, and renal toxicity to cause death. The disease is more severe in female mice than in male mice; the morbidity of female mice is also higher than that of male mice. Therefore, female NZB/WF1 mice were used for screening anti-SLE drugs in this study.
# (§2) Thirty female NZB/WF1 mice (purchased from Jackson Lab, USA) between 12-24 weeks of age were analyzed biweekly to determine proteinuria levels, monthly to assess the titers of antinuclear autoantibody (ANA). The increased titers of ANA and positive response implicated that female NZB/WF1 mice were going to develop SLE and were ready for grouping. At 22 weeks of age, the animals showing the abovementioned syndromes were randomly divided into 3 groups (10 mice per group, water was administered to negative control group, steroid was given to positive control group, and cyclohexenone compounds of Antrodia camphorata was administered to experiment group), and the start time for the experiment was set as week zero. In addition, ten B6 mice (purchased from National Laboratory Animal Center, Taiwan) without SLE syndrome were normal mice served as blank group. Table 1 Treatment of animal groups
# The blank group in Table 1 was B6 mice of no SLE syndrome, which received no treatment and normal diet for natural growth. NZB/WF1 female mice that were able to express SLE syndromes were served in negative control and positive control groups. Mice in the former group received normal water; in the latter were orally medicated with 1.25 mg/kg of prednisolone, the SLE drug. Mice in the experiment group were orally medicated with 50 mg/kg of cyclohexenone compounds from Example 1. […]
# SLE patients develop renal inflammation and damage, which cause leakage of protein from kidney into the fluid. […] Ten µl of urine was assayed with Bio-Rad Protein Assay Dye Reagent Concentrate (Bio-Rad Laboratories, USA) and read under […] with an ELISA analyzer to determine the protein concentration with a standard curve.
# [2] = system: anti-dsDNA antinuclear antibodies in female NZB/WF1 SLE mice; assay: Titers of anti-dsDNA antinuclear antibodies in plasma of SLE mouse model (Mouse Anti-dsDNA IgG ELISA); type: in vivo; conditions: for titer of anti-dsDNA antinuclear antibodies decreased to: week 8, oral once per day (cyclohexenone compounds 50 mg/kg; prednisolone 1.25 mg/kg), reference of the percentage not stated
# Method: as §1, §2
# The blank group in Table 1 was B6 mice of no SLE syndrome, which received no treatment and normal diet for natural growth. NZB/WF1 female mice that were able to express SLE syndromes were served in negative control and positive control groups. Mice in the former group received normal water; in the latter were orally medicated with 1.25 mg/kg of prednisolone, the SLE drug. Mice in the experiment group were orally medicated with 50 mg/kg of cyclohexenone compounds from Example 1. The mice were fed with the abovementioned substances once per day starting at 23 weeks of age, and this period of time was referred to as the first week of this experiment. […]
# The titers of dsDNA antinuclear antibodies were determined in this study to assess the effects of cyclohexenone compounds from Antrodia camphorata on SLE mice. […]
SMILES,proteinuria level [1] [mg/dL],"increase in proteinuria level than that before experiment ([1]; after 6 weeks, oral 50 mg/kg once per day, negative control 2.76-fold) [fold]","titers of anti-dsDNA antinuclear antibodies compared with negative group ([2]; during 8 weeks of experiment, oral 50 mg/kg once per day)",titer of anti-dsDNA antinuclear antibodies decreased to [2]
"COC1=C(OC)C(O)C(CC=C(C)CCC=C(C)CCC=C(C)C)C(C)C1=O (stereo not drawn) [4-hydroxy-2,3-dimethoxy-6-methyl-5(3,7,11-trimethyl-dodeca-2,6,10-trienyl)-cyclohex-2-enone]",118.2,1.3,significantly lower titers,34%
"C[C@]12C=CC(=O)C=C1CC[C@@H]1[C@@H]2[C@@H](O)C[C@@]2(C)[C@H]1CC[C@]2(O)C(=O)CO [prednisolone, reference compound]",32.6,,,around 50%

# Reference: patent EP2221291B1, “CYCLOHEXENONE COMPOUNDS FROM ANTRODIA CAMPHORATA AND PHARMACEUTICAL COMPOSITIONS THEREOF USEFUL FOR TREATING AUTOIMMUNE DISEASES” (Golden Biotechnology Corporation, priority 2007, dated 2009)
